Test results reported in patent US20240400554A1, “MONOACYLGLYCEROL LIPASE (MAGL) INHIBITORS FOR THE TREATMENT OF PAIN AND RELATED MEDICAL DISORDERS” (Humanwell Pharmaceutical US, Inc., priority 2023, published 2024).

Experiments:
[1] = target: T1, human recombinant MAGL (monoacylglycerol lipase) (Homo sapiens, UniProt Q99685); test: In vitro MAGL enzyme inhibition assay (Cayman Monoacylglycerol Lipase Inhibitor Screening Assay, 4-nitrophenylacetate hydrolysis); type: biochemical; details: 4-nitrophenylacetate substrate, 15 min preincubation, absorbance 405-415 nm
T1 construct: purchased Cayman Chemical Item No. 705192
T1 sequence (Q99685 1-303): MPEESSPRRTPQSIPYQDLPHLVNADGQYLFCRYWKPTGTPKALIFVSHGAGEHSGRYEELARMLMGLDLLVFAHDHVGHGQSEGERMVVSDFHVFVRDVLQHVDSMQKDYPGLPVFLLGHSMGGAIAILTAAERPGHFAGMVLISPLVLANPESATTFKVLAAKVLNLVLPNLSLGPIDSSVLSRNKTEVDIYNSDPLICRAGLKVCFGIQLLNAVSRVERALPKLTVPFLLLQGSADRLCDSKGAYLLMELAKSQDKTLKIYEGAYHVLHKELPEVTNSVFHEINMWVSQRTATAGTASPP
Procedure: Monoacylglycerol Lipase Inhibitor Screening Assay provides a convenient method for screening human MAGL inhibitors.
Dilute 3 ml of MAGL Assay Buffer (10×) concentrate with 27 ml of ultrapure water. This final 1× Assay Buffer (10 mM Tris-HCl, pH 7.2, containing 1 mM EDTA) should be used in the assay and for the dilution of MAGL enzyme, substrate, and MAGL inhibitor. The 1× Assay Buffer is stable for at least six months if stored at −20° C.
The vial contains 0.5 ml of 17 mM ethanolic solution of 4-nitrophenylacetate. Mix 150 μL of this solution with 450 μl of 1× Assay Buffer prior to testing. This is enough substrate to assay 50 wells. Dilute additional substrate if using the entire plate.
This vial contains 100 μl of a solution of human recombinant MAGL (monoacylglycerol lipase). The thawed enzyme should be stored on ice. Dilute 30 μl of enzyme with 570 μl of 1×MAGL Assay Buffer. This is enough enzyme to assay 50 wells. Dilute additional enzyme if using the entire plate. The diluted enzyme is stable for four hours on ice.
This vial contains 20 nmol of inhibitor. Resuspend in 125 μl of DMSO, then add 125 μl of 1× Assay Buffer and vortex to make an 80 μM stock.
1). 100% Initial Activity Wells—add 150 μl of 1× Assay Buffer, 10 μl of MAGL enzyme, and 10 μl of solvent (same solvent used to dissolve the inhibitor) to three wells.
2). Background Wells—add 160 μl of 1× Assay Buffer and 10 μl of solvent (same solvent used to dissolve the inhibitor) to three wells.
3). Inhibitor/Positive Control Wells—add 150 μl of 1× Assay Buffer, 10 μl of MAGL enzyme, and 10 μl of inhibitor* or positive control inhibitor to the inhibitor wells.
4). Mix the contents of the wells by pipetting gently up and down and incubate for 15 minutes at room temperature. The incubation time for different inhibitors may vary and will need to be optimized by the user.
5). Initiate the reactions by adding 10 μl of MAGL Substrate to all the wells being used. Carefully shake the 96-well plate for 10 seconds to mix and cover with the plate cover. Incubate for ten minutes at room temperature.
6). […] (Tecan Spark 10M Multimode Plate Reader)
1). Determine the average absorbance of each sample.
2). Subtract the average absorbance of the background wells from the average absorbance of the 100% initial activity and the inhibitor wells.
3). Determine the percent inhibition or percent activity for each inhibitor using one of the following equations: […]

[2] = tested on: 2% formalin model in SD rats; test: Formalin-induced pain model; type: in vivo; details: 3 mg/kg p.o.
Procedure: A diluted formalin solution is injected subcutaneously into the hind paw of rats using a microsyringe, creating a continuous noxious stimulus that induces spontaneous pain behaviors in the animals. The experiment can record the number of lifts and licks of the rat's foot through an autonomous movement analyzer to assess the degree of pain. This experiment uses a 2% formalin model in SD rats and tests the analgesic activity of compounds by oral administration. After injecting 2% formalin, the number of movements (lifts and licks of the injected foot) from 0-60 min after injecting the formalin solution is recorded and analyzed.
The Maximum Possible Effect (MPE %) is calculated as a percentage:
Note: (1) MPE % for each group is calculated with sham group MPE=100% and vehicle group MPE=0% as standards. (2) Movement counts of the sham group are subtracted to exclude the impact of background noise on the experiment. (2) “Sham” represents the average value of the sham group; “Vehicle-Sham” represents the average value of the vehicle group minus the sham group.
Results are presented as mean values with standard error. Data from each group are analyzed and graphed using GraphPad Prism 8 software. Statistical analysis is conducted using one-way ANOVA to determine statistical differences between groups, with t-tests used for comparisons between two groups. A p-value <0.05 is considered statistically significant.

O=C(OC(CO)C(F)(F)F)N1CCC(c2cc3n(n2)-c2ccc(F)cc2CC3)CC1 (stereo not drawn) [Compound 2, 1,1,1-trifluoro-3-hydroxypropan-2-yl 4-(7-fluoro-4,5-dihydropyrazolo[1,5-a]quinolin-2-yl)piperidine-1-carboxylate]
IC50 [1]: 16 nM
Experimental Results (analgesic activity in the formalin model) [2]: effective
inhibition in vivo at 3 mg/kg ([2]; Rattus norvegicus, po, 1 h, movements (lifts and licks) 0-60 min after formalin, read-out: MPE % (Maximum Possible Effect)): 45%
